{"source": "patent US20090181420A1", "about": "“Inhibiting Smad signaling promotes neuron regeneration” (Children's Medical Center Corporation, priority 2006, published 2009)", "molecules": {"B1": {"name": "Smad7: FLAG-tagged Smad7 overexpressed from an expression construct; competes with Smad2/3 for binding to activated ALK (protein, UniProt O15105 1-426, looked up)", "Mothers against …": "MFRTKRSALVRRLWRSRAPGGEDEEEGAGGGGGGGELRGEGATDSRAHGAGGGGPGRAGCCLGKAVRGAKGHHHPHPPAAGAGAAGGAEADLKALTHSVLKKLKERQLELLLQAVESRGGTRTACLLLPGRLDCRLGPGAPAGAQPAQPPSSYSLPLLLCKVFRWPDLRHSSEVKRLCCCESYGKINPELVCCNPHHLSRLCELESPPPPYSRYPMDFLKPTADCPDAVPSSAETGGTNYLAPGGLSDSQLLLEPGDRSHWCVVAYWEEKTRVGRLYCVQEPSLDIFYDLPQGNGFCLGQLNSDNKSQLVQKVRSKIGCGIQLTREVDGVWVYNRSSYPIFIKSATLDNPDSRTLLVHKVFPGFSIKAFDYEKAYSLQRPNDHEFMQQPWTGFTVQISFVKGWGQCYTRQFISSCPCWLEVIFNSR", "modifications": "FLAG tag"}, "B2": {"name": "activin A: TGFβ family member produced in skin (protein, UniProt P08476 311-426, looked up)", "Inhibin beta A chain": "GLECDGKVNICCKKQFFVSFKDIGWNDWIIAPSGYHANYCEGECPSHIAGTSGSSLSFHSTVINHYRMRGHSPFANLKSCCVPTKLRPMSMLYYDDGQNIIKKDIQNMIVEECGCS"}}, "key": {"[1]": {"system": "phospho-Smad2", "assay": "Phospho-Smad2 in adult DRG after intraganglionic injection", "format": "in vivo, rat", "conditions": "2 μl of 5-10 mM injected into adult DRG (L4 and L5); pilot experiments"}, "[2]": {"system": "adult DRG neurons (L4 and L5)", "assay": "Axonal growth ability of injected adult DRG neurons cultured in vitro for 12 hrs", "format": "in vivo, rat", "conditions": "injected into adult DRG; 3 or 7 days post-injection, cultured 12 hrs; vs saline", "method": "Average axon length of the longest neurite from every individual neuron was measured and quantified as described before (Koprivica et al., 2005; Wang et al., 2002a; Wang et al., 2002b). Branching frequency was measured by dividing the number of branches from the longest neurite by the length of the neurite, as previously described (Smith and Skene, 1997). All measurements were made from at least 150 neurons per condition, from duplicate wells and from three independent experiments.\nWe next examined whether inhibiting this signaling pathway could enhance the intrinsic growth state of adult DRG neurons by pharmacological approaches. We injected SB505124 or the same volume of saline into the adult DRG (L4 and L5). 3 or 7 days post-injection, the axonal growth ability of injected DRG neurons were assayed by culturing DRG neurons in vitro for 12 hrs."}, "[3]": {"system": "Smad2/3 signaling", "assay": "Directed forepaw reaching (DFR) task after dorsal corticospinal tract transection", "format": "in vivo, Sprague Dawley rats", "conditions": "rats, sixth week after surgery; SB-505124 30 mg/kg tail vein or siRNA 10 μl intrathecal, days 1-7; vs lesion and vehicle groups", "description": "Adult Sprague Dawley rats (300-400 gm) are trained and tested in a directed forepaw reaching (DFR) apparatus which measures grasping ability. The apparatus, which is described in detail by Nash et al., supra, is a box that consists of two compartments: a main compartment for housing the rats and a minor compartment for the food, separated by a Plexiglas divider. The minor compartment is subdivided into slots of equal size, each holding a pellet of food. Between the slots and the Plexiglas there is a gap. The apparatus is configured such that in order to retrieve a food pellet from a slot, a rat must extend a forelimb through a hole in the Plexiglas divider, and grasp the pellet and lift it over the gap and out of the slot. If the rat merely rakes the food in the slot towards the hole in the Plexiglas, the food will drop from the slot into the gap and fall to the floor of the minor compartment. The floor of the minor compartment can be configured to allow a rat to retrieve food that drops or it can be lowered to prevent the rat from reaching dropped food. Prior to inducing spinal injury, the rats are food restricted, receiving ˜3 gm food/100 gm body weight per day, before and throughout training and testing. Weight is monitored to ensure that rats are reduced to no less than 80% of their original body weight at any time. […]"}, "[4]": {"system": "Smad2/3 signaling", "assay": "Count of BDT-labeled CST axons caudal to spinal cord lesion", "format": "in vivo, Sprague Dawley rats", "conditions": "rats, seven weeks and 3 d after lesioning; 1-19 mm caudal to lesion; vs lesioned control rats", "description": "Rats are randomly assigned to control or experimental groups. Sham control rats undergo surgical procedure without lesioning, and with or without placement of an intrathecal catheter. Lesioned control rats receive no treatment, tail injection vehicle only treatment, intrathecal catheter only treatment, intrathecal catheter with vehicle only treatment, or intrathecal catheter and mismatch siRNA treatment. After anesthesia with isoflurane, the rats are placed on an operating board in such a way as to bend the cervical spinal cord for maximum exposure. A laminectomy is performed exposing the dorsum of the spinal cord between C2 and C4. The dorsal columns are identified bilaterally, and, in all rats except for those in the sham group, a suture needle is passed through the spinal cord, isolating the dorsal funiculus. The suture thread is gently lifted, and a pair of iridectomy scissors is used to bilaterally transect the dorsal funiculus, thereby transecting the dorsal corticospinal tract (CST). […]\nSeven weeks after injury, rats are prepared for injection of biotin dextran tetramethylrhodamine (BDT; Molecular Probes). […] After anesthesia with isoflurane (5%), rats are placed in a stereotaxic instrument, and a total of six stereotaxically determined holes (0.9 mm diameter) are drilled in the skull over the primary motor cortices associated with the forelimbs. […]"}, "[5]": {"system": "dissociated adult rat DRG neurons", "assay": "Axonal growth of adult rat DRG neurons overexpressing Smad7", "format": "cell-based", "conditions": "Smad7 overexpression vs control GFP", "method": "(§1) For overexpression of Smad7 in DRGs, adult rat DRG neurons were co-transfected by electroporation with 2 μg pEGFP (Invitrogen) and 5 μg of an expression construct for FLAG-tagged Smad7 (Nakao et al., 1997) or control plasmid using the Rat Neuron Nucleofector Kit (Amaxa) following manufacturer's protocol. After brief purification, the neurons were plated at a density of 200-500 cells/mm2. For overexpression of Smad7 in cerebellar granule neurons (CGN), CGNs from P6 Sprague-Dawley rat pups were dissected, plated onto poly-D-lysine (20 μg/ml), and cultured in Basal Medium Eagle (Gibco) supplemented with 10% calf serum, 25 mM KCl, 2 mM L-glutamine, penicillin and streptomycin, at a density of 2.5×10^3 cells/mm2. CGNs were co-transfected with pEGFP and Smad7 or control plasmid at a 1 to 3 ratio using a modified calcium phosphate transfection method as described before (Konishi et al., 2004). […]\n(§2) Average axon length of the longest neurite from every individual neuron was measured and quantified as described before (Koprivica et al., 2005; Wang et al., 2002a; Wang et al., 2002b). Branching frequency was measured by dividing the number of branches from the longest neurite by the length of the neurite, as previously described (Smith and Skene, 1997). […]"}, "[6]": {"system": "cerebellar granule neurons (CGNs) from postnatal rats", "assay": "Axonal growth of cerebellar granule neurons overexpressing Smad7", "format": "cell-based, rat", "conditions": "Smad7 expression, effect became stronger with time", "method": "as §1, §2"}, "[7]": {"system": "embryonic DRG neurons", "assay": "Effect of activin A on axonal growth ability of embryonic DRG neurons (prior experiments)", "format": "cell-based"}, "[8]": {"system": "adult DRG neurons", "assay": "Effect of activin A on axonal elongation of adult DRG neurons (prior experiments)", "format": "cell-based"}}}
{"molecule": "Cc1cccc(-c2[nH]c(C(C)(C)C)nc2-c2ccc3c(c2)OCO3)n1.Cl", "note": "[SB-505124, 2-(5-benzo[1,3]dioxol-5-yl-2-tert-butyl-3H-imidazol-4-yl)-6-methylpyridinehydrochloride]", "values": [{"measurement": "phospho-Smad2 in the injected DRGs", "setting": "[1]", "result": "significant reduction of phospho-Smad2"}, {"measurement": "axonal elongation of DRG neurons", "setting": "[2]", "result": "significantly increased axonal elongation"}, {"measurement": "branching frequency of DRG neurons", "setting": "[2]", "result": "reduced branching frequency"}, {"measurement": "DFR task performance (functional recovery after spinal injury)", "setting": "[3]", "result": "Significantly better performance"}, {"measurement": "number of BDT-labeled axons caudal to the lesion", "setting": "[4]", "result": "Significantly more labeled axons at each distance"}]}
{"molecule": "B1", "values": [{"measurement": "rate of axonal growth", "setting": "[5]", "result": "significantly enhanced the rate of axonal growth"}, {"measurement": "axonal growth rate", "setting": "[6]", "result": "dramatically increase axonal growth rate"}]}
{"molecule": "B2", "values": [{"measurement": "axonal growth ability", "setting": "[7]", "result": "triggers a decline in axonal growth ability"}, {"measurement": "axonal elongation ability", "setting": "[8]", "result": "reduces axonal elongation ability"}]}
